# In paper PMC10976043, “Function and Mechanism of Antiviral Wasp Venom Peptide Protopolybia-MP III and Its Derivatives against HSV-1” (Toxins, 2024):
# Read-outs that look alike come from different tables or passages of the source. Ends that are not written are not given here.
# How the values were obtained:
# [1] = test system: HSV-1; assay type: cell-based, herpes simplex virus type 1; conditions: for effect on intracellular HSV-1 RNA: different concentrations, HSV-1 MOI 1, 24 h, qPCR
# Protocol: (A) Amino acid sequence of Protopolybia-MP III. Basic residues are labeled blue, and acidic residues are labeled red. (B,C) Suppression of intracellular HSV-1 infection by Protopolybia-MP III. Cells were preincubated with Protopolybia-MP III at different concentrations or PBS for 1 h and then infected with HSV-1 at a multiplicity of infection (MOI) of 1. After 24 h, the cells were collected. Intracellular HSV-1 RNA was analyzed by qPCR (B), and intracellular HSV-1 ICP0 protein levels were analyzed by Western blotting (C). (D) Suppression of Protopolybia-MP III on extracellular HSV-1 particles. Cells were treated with Protopolybia-MP III at different concentrations or PBS for 24 h, and then the supernatant was collected and evaluated in a plaque formation assay. (E) Cytotoxicity of Protopolybia-MP III to Vero cells. Cells were treated with Protopolybia-MP III or PBS at different concentrations for 24 h, and then the cytotoxicity was determined by CCK8 assay. * p < 0.05. ** p < 0.01. *** p < 0.001.
# Figure 2 Protopolybia-MP III inhibits HSV-1 replication in human cell lines. (A) Cytotoxicities of Protopolybia-MP III to A549 cells, HCEC, and SK-N-MC. Cells were treated with Protopolybia-MP III at different concentrations or PBS for 24 h, and then cytotoxicities were determined by the CCK8 assay. (B,C) Suppression of intracellular HSV-1 infection by Protopolybia-MP III in A549 cells, HCEC, and SK-N-MC. Cells were preincubated with Protopolybia-MP III at different concentrations or PBS for 1 h and then infected with HSV-1 at an MOI of 1. After 24 h, the cells were collected. Intracellular HSV-1 RNA was analyzed by qPCR (B), and intracellular HSV-1 ICP0 protein expression levels were analyzed by Western blotting (C). (D) Inhibition of Protopolybia-MP III on extracellular HSV-1 particles in A549 cells, HCEC, and SK-N-MC. Cells were treated with Protopolybia-MP III at different concentrations or PBS for 24 h, and then the supernatant was collected and evaluated in a plaque formation assay. * p < 0.05. ** p < 0.01. *** p < 0.001.
# HSV-1 was kindly provided by Professor Zhijian Cao of Wuhan University. Cells were infected with HSV-1 at an MOI of 1 for 24 h. Then, cells were collected for qPCR, Western blotting, and immunofluorescence assays, and the extracellular supernatant was used for plaque formation assays.
# (§1) Cells were collected and lysed using TRIzol reagent (Beyotime Biotechnology, Shanghai, China) to release the intracellular total RNA, followed by precipitation with isopropanol. The first-strand cDNA was reverse-transcribed by the HiScript III 1st Strand cDNA Synthesis Kit (+gDNA wiper) (Vazyme, Nanjing, China). The cDNA was quantitated by qPCR with primers using Taq Pro Universal SYBR qPCR Master Mix (Vazyme). The HSV-1 primers were 5′-[…]-3′ (sense) and 5′-[…]-3′ (antisense). The monkey GAPDH primers were 5′-[…]-3′ (sense) and 5′-[…]-3′ (antisense). The human GAPDH primers were 5′-[…]-3′ (sense) and 5′-[…]-3′ (antisense). qPCR experiments were performed on a Bio-Rad CFX96 Touch (Pleasanton, CA, USA) according to the manufacturer’s instructions.
# [2] = test system: HSV-1 virion; assay: HSV-1 free virion infectivity assay, qPCR; assay type: cell-based, herpes simplex virus type 1; conditions: then Vero cells infected, 24 h
# Protocol: Figure 5 Protopolybia-MP III destroys the integrity of HSV-1 free virions. (A) Schematic diagram for studying the effect of Protopolybia-MP III on HSV-1 free virion infectivity. (B) Effects of Protopolybia-MP III on HSV-1 free virion infectivity at different temperatures. HSV-1 (MOI = 1) and 20 μg/mL Protopolybia-MP III or PBS were coincubated at 4 °C, 22 °C, and 37 °C for 1 h, and then Vero cells were infected as described in (A). After 24 h, cells were collected, and intracellular HSV-1 RNA was analyzed by qPCR. (C) Effects of different concentrations of Protopolybia-MP III on HSV-1 free virion infectivity. HSV-1 (MOI = 1) and 1 or 10 μg/mL Protopolybia-MP III or PBS were coincubated at 37 °C for 1 h, and then Vero cells were infected as described in (A). After 24 h, cells were collected, and intracellular HSV-1 RNA was analyzed by qPCR. (D,E) The effect of Protopolybia-MP III on HSV-1 free virion integrity. HSV-1 and 20 μg/mL Protopolybia-MP III or PBS were coincubated at 37 °C for 1 h. Then, after centrifuging for 2 h at 40,000 rpm at 4 °C, the contents of HSV-1 gB in the supernatant and precipitate were detected by Western blotting (D). In addition, the structure of HSV-1 virions after incubation with Protopolybia-MP III was observed by electron microscopy. The red arrow points to a destroyed HSV-1 virion. *** p < 0.001.
# Figure 7 Antiviral activity analysis of Protopolybia-MP III mutants. (A) Amino acid sequences of Protopolybia-MP III mutants. Identical amino acids among Protopolybia-MP I, Protopolybia-MP III, and its mutants are marked in blue, and different amino acids are marked in red. (B) Suppression of Protopolybia-MP I, Protopolybia-MP III, and its mutants on intracellular HSV-1 content. Cells were preincubated with 20 μg/mL peptides or PBS for 1 h and then infected with HSV-1 at an MOI of 1. After 24 h, the cells were collected. Intracellular HSV-1 ICP0 protein levels were analyzed by Western blotting. The ratios of HSV-1 ICP0 to GAPDH were calculated by ImageJ software. (C) Inhibition of HSV-1 free virion infectivity by Protopolybia-MP I, Protopolybia-MP III, and its mutants. HSV-1 (MOI = 1) and 5 μg/mL peptides or PBS were coincubated at 37 °C for 1 h, and the mixtures were then used to infect Vero cells. After 24 h, cells were collected, and intracellular HSV-1 RNA was analyzed by qPCR. ns, no significance. * p < 0.05. ** p < 0.01. *** p < 0.001.
# as §1
substance,measurement,setting,value
INWLKLGKAVIDAL-NH2 [Protopolybia-MP III],50% inhibitory concentration (IC50) against HSV-1 RNA,[1]; 1 h,5.132 ± 1.054 µg/mL
same,inhibition rate on intracellular HSV-1 RNA,"[1]; 1 h, 5 μg/mL",50%
same,inhibition rate on intracellular HSV-1 RNA,"[1]; 1 h, 10 μg/mL",73%
same,inhibition rate on intracellular HSV-1 RNA,"[1]; 1 h, 20 μg/mL",94%
same,effect on intracellular HSV-1 RNA,[1]; A549 cells,suppressed HSV-1 RNA
same,effect on intracellular HSV-1 RNA,[1]; HCEC,suppressed HSV-1 RNA
same,effect on intracellular HSV-1 RNA,[1]; SK-N-MC,suppressed HSV-1 RNA
same,HSV-1 virions inactivated,[2]; 1 μg/mL coincubated with HSV-1 (MOI 1) at 37 °C for 1 h,51%
same,HSV-1 virions inactivated,[2]; 10 μg/mL coincubated with HSV-1 (MOI 1) at 37 °C for 1 h,99%
same,inhibition rate of HSV-1 virion infectivity,[2]; 20 μg/mL coincubated with HSV-1 (MOI 1) at 4 °C for 1 h,above 99%
same,inhibition rate of HSV-1 virion infectivity,[2]; 20 μg/mL coincubated with HSV-1 (MOI 1) at 22 °C for 1 h,above 99%
same,inhibition rate of HSV-1 virion infectivity,[2]; 20 μg/mL coincubated with HSV-1 (MOI 1) at 37 °C for 1 h,above 99%
same,inhibition rate of HSV-1 free virion infectivity,[2]; mutant comparison (Figure 7C): 5 μg/mL coincubated with HSV-1 (MOI 1) at 37 °C for 1 h,97.3%
